US8338422B2, “Indolin-2-ones and aza-indolin-2-ones” (Janssen Pharmaceutica NV, priority 2007, dated 2012)

How the values were obtained:
H1299 = experiment: Cellular proliferation assay (Alamar blue), H1299; type: cell-based; conditions: H1299 cells, 72 hours with compound, 10% FCS; for IC50: Homo sapiens, NCI-H1299, 72 h, read-out: pIC50 H1299 (converted)
Protocol: (§1) […] functional properties of these compounds was tested in cellular proliferation assays on a panel of different cell lines in the presence of 10% FCS serum (37° C. and 5% (v/v) CO2). In a first step these cells were seeded and incubated for 24 hours in the absence of compound. In the second step the cells were incubated for 72 hours with the compounds to be tested for 72 hours. The viable cell number was finally assessed in a standard Alamar blue cell viability assay.
(§2) The viable cell number was assessed by incubation for either 4 h (HCT-116, H1299, H460) 6 h (SKOV3, HT29, U87-MG, Colo205) or 24 h (A2780, PC3, MDA-MB-231, A549, MCF-7) with Alamar blue (Resazurin 9 μg/ml, K-Ferrocyanide 90 μM K-Ferricyanide 90 μM) and the converted fluorescent product was quantified on a fluorescent plate readed (544 nm/590 nm). Effect of the compounds is calculated as of on control cells.

AuroraB (h) = AuroraB (h) (Homo sapiens, UniProt Q96GD4); experiment: Aurora-B human kinase assay (SPA); type: biochemical; conditions: for IC50: read-out: AuroraB pIC50 (converted)
Chain of AuroraB (h) (Q96GD4 whole entry): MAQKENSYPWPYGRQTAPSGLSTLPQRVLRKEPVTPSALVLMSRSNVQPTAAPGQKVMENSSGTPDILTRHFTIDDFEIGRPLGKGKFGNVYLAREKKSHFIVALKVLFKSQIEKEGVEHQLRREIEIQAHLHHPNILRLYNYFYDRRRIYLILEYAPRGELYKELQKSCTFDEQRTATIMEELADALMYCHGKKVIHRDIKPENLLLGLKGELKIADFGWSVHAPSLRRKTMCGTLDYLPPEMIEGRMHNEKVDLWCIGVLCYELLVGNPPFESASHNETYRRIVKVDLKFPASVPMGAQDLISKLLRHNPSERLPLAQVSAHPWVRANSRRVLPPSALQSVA
How it was run: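 Scintillation proximity assay: AuroraB (h) at 0.5 μg/ml with 3 μM biotinylated peptide, 0.5 μM ATP and 2.2 nM [γ-33P]ATP in 60 mM Hepes pH 7.5, 3 mM MgCl2, 3 mM MnCl2, 2 mM DTT. 60 min at room temperature, EDTA stop, streptavidin PVT beads read on Leadseeker.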

U87MG = experiment: Cellular proliferation assay (Alamar blue), U87MG; type: cell-based; conditions: U87MG cells, 72 hours with compound, 10% FCS; for IC50: Homo sapiens, U-87 MG, 72 h, read-out: pIC50 U87MG (converted)
Protocol: as §1, §2

CDK1/CyclinB (h) = CDK1/CyclinB (h) (Homo sapiens, UniProt P06493); experiment: CDK1/CyclinB human kinase assay (FRET); type: biochemical; conditions: for IC50: read-out: CDK1 pIC50 (converted)
Chain of CDK1/CyclinB (h) (P06493 whole entry): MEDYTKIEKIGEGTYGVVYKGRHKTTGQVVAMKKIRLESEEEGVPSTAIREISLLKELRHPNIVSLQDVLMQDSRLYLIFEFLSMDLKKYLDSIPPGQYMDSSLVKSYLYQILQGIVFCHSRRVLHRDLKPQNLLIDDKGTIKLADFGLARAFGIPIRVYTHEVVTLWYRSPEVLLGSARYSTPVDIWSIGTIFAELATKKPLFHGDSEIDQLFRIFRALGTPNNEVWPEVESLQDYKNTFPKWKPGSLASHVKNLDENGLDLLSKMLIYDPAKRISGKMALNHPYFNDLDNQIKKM
Chain of CDK1/CyclinB (h) (P14635 whole entry partner): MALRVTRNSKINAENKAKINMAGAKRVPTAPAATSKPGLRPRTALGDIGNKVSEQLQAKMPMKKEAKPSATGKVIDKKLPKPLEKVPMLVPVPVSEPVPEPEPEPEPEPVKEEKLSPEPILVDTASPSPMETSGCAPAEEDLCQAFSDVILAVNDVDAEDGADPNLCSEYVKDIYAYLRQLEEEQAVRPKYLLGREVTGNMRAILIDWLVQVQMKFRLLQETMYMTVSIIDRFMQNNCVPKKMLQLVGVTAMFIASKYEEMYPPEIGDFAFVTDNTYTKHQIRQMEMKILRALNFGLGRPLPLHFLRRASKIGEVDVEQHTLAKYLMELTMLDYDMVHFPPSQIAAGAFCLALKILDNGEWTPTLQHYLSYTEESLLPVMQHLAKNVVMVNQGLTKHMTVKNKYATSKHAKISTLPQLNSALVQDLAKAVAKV
How it was run: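 Z'-LYTE FRET format: 0.2 μg/ml enzyme with 2 μM Ser/Thr peptide 12 and 10 μM ATP in 50 mM Hepes pH 7.5, 10 mM MgCl2, 1 mM EGTA, 0.01% Brij-35, 60 min at room temperature. Protease development 60 min; coumarin/fluorescein emission ratio (460/538 nm, excitation 390 nm) reports phosphorylation.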

PLK4 (h) = PLK4 (h) (Homo sapiens, UniProt O00444); experiment: PLK-4 human kinase assay (SPA); type: biochemical; conditions: for IC50: read-out: PLK4 pIC50 (converted)
Chain of PLK4 (h) (O00444 whole entry): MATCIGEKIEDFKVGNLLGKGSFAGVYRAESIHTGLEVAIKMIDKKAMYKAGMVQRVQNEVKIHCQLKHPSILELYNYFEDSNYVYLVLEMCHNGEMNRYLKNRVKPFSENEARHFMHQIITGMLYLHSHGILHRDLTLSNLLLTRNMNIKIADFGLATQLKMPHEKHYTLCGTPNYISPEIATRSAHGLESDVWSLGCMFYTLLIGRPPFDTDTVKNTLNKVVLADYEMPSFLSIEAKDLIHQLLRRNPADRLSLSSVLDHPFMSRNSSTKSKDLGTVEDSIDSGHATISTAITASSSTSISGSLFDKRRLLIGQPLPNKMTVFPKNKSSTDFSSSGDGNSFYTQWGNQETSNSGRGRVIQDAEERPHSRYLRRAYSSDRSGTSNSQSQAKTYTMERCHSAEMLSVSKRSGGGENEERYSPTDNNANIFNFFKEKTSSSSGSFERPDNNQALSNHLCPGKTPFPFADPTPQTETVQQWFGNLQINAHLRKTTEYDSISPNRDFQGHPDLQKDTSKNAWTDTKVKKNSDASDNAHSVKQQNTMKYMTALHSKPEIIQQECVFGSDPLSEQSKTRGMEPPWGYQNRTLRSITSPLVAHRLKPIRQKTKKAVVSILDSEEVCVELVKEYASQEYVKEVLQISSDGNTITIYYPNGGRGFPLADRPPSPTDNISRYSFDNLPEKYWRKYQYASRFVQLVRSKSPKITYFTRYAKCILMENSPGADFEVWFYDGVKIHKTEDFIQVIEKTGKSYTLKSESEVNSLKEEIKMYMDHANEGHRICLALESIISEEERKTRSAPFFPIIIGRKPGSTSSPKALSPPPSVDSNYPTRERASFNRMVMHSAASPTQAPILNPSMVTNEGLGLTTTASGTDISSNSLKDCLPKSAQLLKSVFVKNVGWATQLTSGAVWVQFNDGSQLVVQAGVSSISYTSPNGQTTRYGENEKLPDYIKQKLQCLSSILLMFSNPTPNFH
How it was run: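 Radiometric readout: 33P-labelled peptide captured on streptavidin SPA beads after EDTA stop, imaged by Leadseeker. Reaction ran 60 min at room temperature in Hepes pH 8.0 buffer. It contained 1 μM ATP with 2 nM [γ-33P]ATP, 10 μM biotinylated peptide and PLK4 (h) at 19 μg/ml.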

A2780 = experiment: Cellular proliferation assay (Alamar blue), A2780; type: cell-based; conditions: A2780 cells, 72 hours with compound, 10% FCS; for IC50: Homo sapiens, A2780, 72 h, read-out: pIC50 A2780 (converted)
Protocol: as §1, §2

PC-3 = experiment: Cellular proliferation assay (Alamar blue), PC-3; type: cell-based; conditions: PC-3 cells, 72 hours with compound, 10% FCS; for IC50: Homo sapiens, PC-3, 72 h, read-out: pIC50 PC-3 (converted)
Protocol: as §1, §2

MDA/MB231 = experiment: Cellular proliferation assay (Alamar blue), MDA/MB231; type: cell-based; conditions: MDA/MB231 cells, 72 hours with compound, 10% FCS; for IC50: Homo sapiens, MDA-MB-231, 72 h, read-out: pIC50 MDA/MB231 (converted)
Protocol: as §1, §2

GSK3β (h) = GSK3β (h) (Homo sapiens, UniProt P49841); experiment: GSK-3β human kinase assay (SPA); type: biochemical; conditions: for IC50: read-out: GSK3B pIC50 (converted)
Chain of GSK3β (h) (P49841 whole entry): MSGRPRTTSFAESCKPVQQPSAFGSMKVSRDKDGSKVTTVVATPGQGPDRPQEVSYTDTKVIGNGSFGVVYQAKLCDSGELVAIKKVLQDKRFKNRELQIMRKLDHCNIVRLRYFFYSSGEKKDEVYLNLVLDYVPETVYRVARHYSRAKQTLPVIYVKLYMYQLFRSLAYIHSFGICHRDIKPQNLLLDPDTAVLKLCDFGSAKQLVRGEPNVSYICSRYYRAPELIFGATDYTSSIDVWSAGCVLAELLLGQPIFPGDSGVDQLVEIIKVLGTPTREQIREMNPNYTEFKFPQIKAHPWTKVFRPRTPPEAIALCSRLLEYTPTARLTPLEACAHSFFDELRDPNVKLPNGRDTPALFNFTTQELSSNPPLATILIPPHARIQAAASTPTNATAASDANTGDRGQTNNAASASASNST
How it was run: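 Radiometric SPA read-out: after EDTA stop, biotinylated 33P-labelled peptide bound streptavidin PVT beads and was imaged on Leadseeker. Reaction: 60 min, room temperature, GSK3β (h) at 1 μg/ml, 1 μM substrate peptide, 1 μM ATP with 2 nM [γ-33P]ATP, Tris pH 7.4/MgCl2/DTT buffer.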

HCT-116 = experiment: Cellular proliferation assay (Alamar blue), HCT-116; type: cell-based; conditions: HCT-116 cells, 72 hours with compound, 10% FCS; for IC50: Homo sapiens, HCT-116, 72 h, read-out: pIC50 HCT-116 (converted)
Protocol: as §1, §2

Row | SMILES | pIC50 H1299 (H1299) | AuroraB pIC50 (AuroraB (h)) | pIC50 U87MG (U87MG) | CDK1 pIC50 (CDK1/CyclinB (h)) | PLK4 pIC50 (PLK4 (h)) | pIC50 A2780 (A2780) | pIC50 PC-3 (PC-3) | pIC50 MDA/MB231 (MDA/MB231) | GSK3B pIC50 (GSK3β (h)) | pIC50 HCT-116 (HCT-116) | IC50 (H1299) [µM] | IC50 (AuroraB (h)) [µM] | IC50 (U87MG) [µM] | IC50 (CDK1/CyclinB (h)) [µM] | IC50 (PLK4 (h)) [µM] | IC50 (A2780) [µM] | IC50 (PC-3) [µM] | IC50 (MDA/MB231) [µM] | IC50 (GSK3β (h)) [µM] | IC50 (HCT-116) [µM]
1 | CN1CCCCCC(=O)N(C)CCCNc2ncnc3c2C(=CNc2ccc(N4CCOCC4)c(c2)C1)C(=O)N3 (mixture of isomers) [Compound 139] | <5 | <5 | 5.35 | <5 | 6.64 | 5.08 | <5 | <5 | 5.87 | 5.51 | – | – | – | – | – | – | – | – | – | –
2 | COc1ccc2cc1OCCCC(=O)N(C1CCCCC1)CCCNc1ncnc3c1C(=CN2)C(=O)N3 (mixture of isomers) [Compound 145] | 6.08 | 6.41 | 5.45 | <5 | 6.61 | 5.53 | 6.04 | 5.73 | 6.4 | 6.04 | – | – | – | – | – | – | – | – | – | –
3 | CN1CCNC(=O)CCCCCCOc2cccc(c2)N/C=C2\C(=O)Nc3ncnc1c32 [Compound 36] | – | – | – | – | – | – | – | – | – | – | > 10 | > 10 | > 10 | > 10 | 2.24 | > 10 | > 10 | > 10 | 2 | > 10
4 | CN1CCCCCCC(=O)NCCN(C)c2ncnc3c2/C(=C/Nc2cccc(c2)C1)C(=O)N3 [Compound 54] | – | – | – | – | – | – | – | – | – | – | > 10 | > 10 | > 10 | > 10 | > 10 | > 10 | > 10 | > 10 | > 10 | > 10
5 | COc1ccc2cc1OCCCC(=O)N(C(C)C)CCCNc1ncnc3c1C(=CN2)C(=O)N3 (mixture of isomers) [Compound 144] | 6.56 | 7.25 | 5.89 | 6.12 | 7.03 | 5.87 | 6.14 | 5.92 | 7.32 | 6.32 | – | – | – | – | – | – | – | – | – | –
6 | COc1ccc2cc1OCCCC(=O)NCCN(C)c1ncnc3c1/C(=C/N2)C(=O)N3 [Compound 38] | – | – | – | – | – | – | – | – | – | – | > 10 | > 10 | > 10 | > 10 | 2.63 | > 10 | > 10 | > 10 | 3.63 | > 10
7 | COc1cc2cc(c1OC)OCCCC(=O)NCCCNc1ncnc3c1C(=CN2)C(=O)N3 (mixture of isomers) [Compound 147] | 5.97 | 6.6 | 5.35 | 6.91 | 6.95 | 5.37 | 5.42 | <5 | 6.5 | 5.90 | – | – | – | – | – | – | – | – | – | –
8 | CN1CC(=O)N(C)CCCCNc2ncnc3c2/C(=C/Nc2cccc(c2)C1)C(=O)N3 [Compound 154] | – | – | – | – | – | – | – | – | – | – | > 10 | > 10 | > 10 | > 10 | 2.82 | > 10 | > 10 | > 10 | 0.661 | > 10
9 | CN1CCN(c2ccc3cc2CN(C)CCCCCC(=O)N(C)CCNc2ncnc4c2/C(=C/N3)C(=O)N4)CC1 [Compound 126] | – | – | – | – | – | – | – | – | – | – | > 10 | > 10 | 6.31 | > 10 | 0.676 | > 10 | > 10 | > 10 | 3.89 | > 10
10 | COc1ccc2cc1OCCCCC(=O)N(C)CCNc1ncnc3c1/C(=C/N2)C(=O)N3 [Compound 45] | – | – | – | – | – | – | – | – | – | – | 2.82 | 0.24 | 1.66 | 2.19 | 0.537 | > 10 | 9.12 | > 10 | 0.12 | 1.91
11 | CN1CCN(c2ccc3cc2OCCCCC(=O)N(C)CCCNc2ncnc4c2C(=CN3)C(=O)N4)CC1 (mixture of isomers) [Compound 136] | 5.67 | 5.55 | 6.54 | 5.88 | 7.19 | 5.89 | 5.39 | 5.55 | 7.23 | 6.44 | – | – | – | – | – | – | – | – | – | –
12 | CN1CCNc2ncnc3c2C(=CNc2cccc(c2)OCCCC1=O)C(=O)N3 (mixture of isomers) [Compound 58] | 5.89 | 6.33 | 5.13 | 6.16 | 6.75 | 6.2 | <5 | <5 | 6.88 | 6.17 | – | – | – | – | – | – | – | – | – | –
13 | COc1ccc2cc1OCCCCCC(=O)NCCN(C)c1ncnc3c1C(=CN2)C(=O)N3 (mixture of isomers) [Compound 46] | <5 | 5.13 | 5.04 | <5 | 5.18 | <5 | <5 | <5 | 5.07 | <5 | – | – | – | – | – | – | – | – | – | –
14 | COc1ccc2cc1CN(C)CCCCCCC(=O)NCCN(C)c1ncnc3c1/C(=C/N2)C(=O)N3 [Compound 50] | – | – | – | – | – | – | – | – | – | – | > 10 | > 10 | > 10 | > 10 | > 10 | > 10 | > 10 | > 10 | > 10 | > 10
15 | CN1CCN(c2ccc3cc2OCCCCCC(=O)N(C)CCCNc2ncnc4c2C(=CN3)C(=O)N4)CC1 (mixture of isomers) [Compound 138] | <5 | <5 | 6.05 | 5.8 | 6.74 | 5.16 | <5 | <5 | 6.75 | 5.52 | – | – | – | – | – | – | – | – | – | –
16 | CN1CCNC(=O)CCCCCOc2cccc(c2)N/C=C2\C(=O)Nc3ncnc1c32 [Compound 41] | – | – | – | – | – | – | – | – | – | – | > 10 | > 10 | > 10 | 5.01 | 1.78 | > 10 | > 10 | > 10 | 2.45 | > 10
17 | CN1CCNC(=O)CCCOc2cccc(c2)N/C=C2\C(=O)Nc3ncnc1c32 [Compound 40] | – | – | – | – | – | – | – | – | – | – | > 10 | 8.32 | > 10 | 7.08 | 4.9 | > 10 | > 10 | > 10 | 1.51 | > 10
18 | CN1CCNc2ncnc3c2/C(=C/Nc2cccc(c2)OCCCCC1=O)C(=O)N3 [Compound 42] | – | – | – | – | – | – | – | – | – | – | > 10 | 1.38 | > 10 | 5.89 | 1.7 | > 10 | > 10 | > 10 | 0.295 | 2.19
